This passage reports melting point, IC50 and stress-induced hyperthermia results from patent US7696379B2, “Acetylene derivatives” (Novartis AG, priority 2005, dated 2010).

In one data set the target is T1, hmGluR5 (Homo sapiens, UniProt P41594).
T1 construct: expressed in transfected cells
Put plainly: inhibition of agonist induced inositol phosphate turnover in hmGluR5 expressing cells. Type of data set: cell-based. The conditions noted are these: read-out: IC50 concentration, inhibition of quinqualate-induced inositol phosphate turnover. An excerpt:
This can be determined in vitro for example at recombinant human metabotropic glutamate receptors, especially PLC-coupled subtypes thereof such as mGluR5, using different procedures like, for example, measurement of the inhibition of the agonist induced elevation of intracellular Ca^2+ concentration in accordance with L. P. Daggett et al., Neuropharm. Vol. 34, pages 871-886 (1995), P. J. Flor et al., J. Neurochem. Vol. 67, pages 58-63 (1996) or by determination to what extent the agonist induced elevation of the inositol phosphate turnover is inhibited as described by T. Knoepfel et al., Eur. J. Pharmacol. Vol. 288, pages 389-392 (1994), L. P. Daggett et al., Neuropharm. Vol. 67, pages 58-63 (1996) and references cited therein. Isolation and expression of human mGluR subtypes are described in U.S. Pat. No. 5,521,297. Selected agents of the invention show IC50 values for the inhibition of the agonist (e.g. glutamate or quisqualate) induced elevation of intracellular Ca2+ concentration or the agonist (e.g. glutamate or quisqualate) induced inositol phosphate turnover, measured in recombinant cells expressing hmGluR5a of about 1 nM to about 50 μM.

The test system of data set [1] is stress-induced hyperthermia in mice. Nature of the data set: stress-induced hyperthermia in mice. The class given is in vivo. The conditions noted are these: control hyperthermia 0.82+/−0.1° C. How it is done: A. Lecci et al., Psychopharmacol. 101, 255-261]. At doses of about 0.1 to about 30 mg/kg p.o., selected agents of the invention reverse the stress-induced hyperthermia.
With Furan-3-carboxylic acid [(1R,3R)-3-(3-chloro-phenylethynyl)-3-hydroxy-cyclohexyl]-amide, a stress-induced hyperthermia of 0.82+/−0.1° C. was reduced to 0.37+/−0.10° C. at 3 mg/kg p.o., to 0.02+/−0.08° C. at 10 mg/kg p.o. and to −0.49+/−0.12° C. at 30 mg/kg p.o. (p<0.01; p<0.001; p<0.001 respectively).

T1 sequence (P41594 21-1180 isoform P41594-2 limits assumed): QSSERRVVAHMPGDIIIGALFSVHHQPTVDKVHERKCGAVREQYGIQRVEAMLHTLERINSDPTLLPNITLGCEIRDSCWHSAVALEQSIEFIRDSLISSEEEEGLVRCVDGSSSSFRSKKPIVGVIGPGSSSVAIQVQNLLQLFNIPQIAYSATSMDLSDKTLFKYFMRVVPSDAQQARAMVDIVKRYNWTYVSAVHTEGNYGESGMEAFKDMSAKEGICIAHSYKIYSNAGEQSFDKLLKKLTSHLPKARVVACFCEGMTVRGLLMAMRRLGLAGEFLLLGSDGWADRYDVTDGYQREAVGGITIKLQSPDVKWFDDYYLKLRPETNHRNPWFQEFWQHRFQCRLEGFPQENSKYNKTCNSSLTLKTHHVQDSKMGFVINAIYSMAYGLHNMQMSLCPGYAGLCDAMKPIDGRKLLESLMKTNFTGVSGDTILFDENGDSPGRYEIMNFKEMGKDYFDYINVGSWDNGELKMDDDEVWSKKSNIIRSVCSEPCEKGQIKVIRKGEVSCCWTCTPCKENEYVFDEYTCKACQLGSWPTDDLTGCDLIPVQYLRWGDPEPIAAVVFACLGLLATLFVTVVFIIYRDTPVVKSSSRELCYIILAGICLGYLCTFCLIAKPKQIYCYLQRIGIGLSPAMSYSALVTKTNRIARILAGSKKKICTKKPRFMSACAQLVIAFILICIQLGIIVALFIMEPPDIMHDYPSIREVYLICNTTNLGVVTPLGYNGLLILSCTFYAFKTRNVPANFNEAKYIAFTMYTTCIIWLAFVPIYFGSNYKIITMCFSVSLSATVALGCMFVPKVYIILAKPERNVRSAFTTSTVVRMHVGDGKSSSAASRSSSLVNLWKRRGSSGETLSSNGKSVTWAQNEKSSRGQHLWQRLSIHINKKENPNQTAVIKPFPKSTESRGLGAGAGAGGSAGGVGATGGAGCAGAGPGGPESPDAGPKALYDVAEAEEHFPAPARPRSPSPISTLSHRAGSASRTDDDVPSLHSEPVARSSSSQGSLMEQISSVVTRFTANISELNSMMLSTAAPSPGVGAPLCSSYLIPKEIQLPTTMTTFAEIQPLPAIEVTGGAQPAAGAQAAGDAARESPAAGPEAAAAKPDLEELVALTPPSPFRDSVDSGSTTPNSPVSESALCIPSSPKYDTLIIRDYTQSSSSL

As usually defined, the melting point is the temperature of the solid-liquid transition. Compound `Cc1cccc(C#C[C@@]2(O)CCC[C@@H](NC(=O)c3ccoc3)C2)c1` (racemic) [Example 1.19, Furan-3-carboxylic acid ((±)-(1R,3R)-3-hydroxy-3-m-tolylethynyl-cyclohexyl)-amide] had a melting point of 135 to 138 °C.

`O=C(N[C@@H]1CCC[C@](O)(C#Cc2cccc(F)c2)C1)c1cnc[nH]1` (racemic) [Example 1.37, 3H-Imidazole-4-carboxylic acid [(±)-(1R,3R)-3-(3-fluoro-phenylethynyl)-3-hydroxy-cyclohexyl]-amide] displayed a melting point of 190 to 191 °C.

Consider `O=C(N[C@@H]1CCC[C@](O)(C#Cc2cccc(Cl)c2)C1)c1ccoc1` [Example 1, Furan-3-carboxylic acid [(1R,3R)-3-(3-chloro-phenylethynyl)-3-hydroxy-cyclohexyl]-amide], for which, on hmGluR5, the IC50 was found to be 0.028 µM. In addition, the stress-induced hyperthermia in data set [1] (3 mg/kg p.o., p<0.01) is 0.37+/−0.10 °C; in data set [1] (10 mg/kg p.o., p<0.001), 0.02+/−0.08 °C; in data set [1] (30 mg/kg p.o., p<0.001), −0.49+/−0.12 °C.

In the case of `Cc1cccc(C#C[C@@]2(O)CCC[C@@H](NC(=O)c3ccco3)C2)c1` [Example 1.20, Furan-2-carboxylic acid ((1R,3R)-3-hydroxy-3-m-tolylethynyl-cyclohexyl)-amide], the melting point lay in the range of 139 to 142 °C.

Turning to `Cc1cccc(C#C[C@]2(O)CCC[C@H](NC(=O)c3ccco3)C2)c1` [Example 1.21, Furan-2-carboxylic acid ((1S,3S)-3-hydroxy-3-m-tolylethynyl-cyclohexyl)-amide], the melting point fell in the range of 139 to 140 °C.
